10 molecules from ChEMBL document CHEMBL1201862, “PubChem BioAssay data set” (2004) can be followed below.

Some test systems named below: 786-0; A498; ACHN; HL-60; HOP-62; HOP-92; IGROV-1; KM12; LOX IMVI; MCF7; Malme-3M; NCI-H226; NCI-H522; NCI/ADR-RES; OVCAR-8; PC-3; SNB-75; TK-10; U-251; UACC-257.
Common to all, as to test: NCI-60 cell line screen, 48 h

The structures appear in SMILES notation.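 Briefly, cells in 96-well plates were exposed to five compound concentrations for 48 h, and endpoints were estimated by linear interpolation. GI50 marks 50% less growth.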 Activity calls are given as the source filed them. Rule as the data show it: active = GI50 up to about 1.1 µM and inactive = higher.

For `O=C(O)Cc1nc[nH]c1C(=O)O`, the GI50 in the assay on 786-0, in the assay with A498, with ACHN, in the assay on HL-60, in the assay with HOP-62 and in the assay on HOP-92 was > 100 µM (inactive) each time. The GI50 with IGROV-1, in the assay with KM12, in the assay with LOX IMVI, in the assay with MCF7, in the assay on Malme-3M and with NCI-H226 was > 100 µM (inactive) each time. Further, the GI50 with NCI-H522, with NCI/ADR-RES, in the assay with OVCAR-8, in the assay on PC-3, in the assay with SNB-75 and with TK-10 was > 100 µM (inactive) throughout. Moreover, the GI50 in the assay on U-251 and in the assay on UACC-257 was > 100 µM (inactive) in each case.

As for `C=C1CC/C=C(\C)CCC[C@H](C)[C@@H](O)[C@@H]2OC(=O)C(=C)[C@@H]2C[C@H]1O`, the GI50 is 3.8 µM (inactive) in the assay on 786-0; 66.4 µM (inactive) with A498; 2.73 µM (inactive) in the assay with ACHN; 2.42 µM (inactive) in the assay with HL-60; 16 µM (inactive) in the assay on HOP-62; 1.18 µM (inactive) in the assay with HOP-92. The GI50 in the assay on IGROV-1 was 3.88 µM (inactive); in the assay with KM12, 15 µM (inactive); in the assay with LOX IMVI it was 3.69 µM (inactive); in the assay on MCF7, 4 µM (inactive); in the assay with Malme-3M it was 5.96 µM (inactive); in the assay on NCI-H226, 4.05 µM (inactive). Further, the GI50 is 1.84 µM (inactive) in the assay on NCI-H522; 8.3 µM (inactive) in the assay with NCI/ADR-RES; 4.71 µM (inactive) with OVCAR-8; 10 µM (inactive) in the assay on PC-3; 12 µM (inactive) in the assay on SNB-75; 1.49 µM (inactive) in the assay on TK-10. The GI50 in the assay with U-251 was 18.1 µM (inactive); in the assay on UACC-257, 9.77 µM (inactive).

For `O=C(Nc1sccc1S(=O)(=O)c1ccc(Cl)cc1)c1ccccc1`, the GI50 with 786-0 is > 100 µM (inactive); in the assay with A498, > 100 µM (inactive); in the assay on ACHN it was > 100 µM (inactive); in the assay on HL-60, > 100 µM (inactive); with HOP-62 it was 87.9 µM (inactive); with HOP-92, > 100 µM (inactive). In addition, the GI50 with IGROV-1, in the assay with KM12, in the assay on LOX IMVI, in the assay on MCF7, with Malme-3M and in the assay on NCI-H226 was > 100 µM (inactive) each time. For the same molecule, the GI50 with NCI-H522 is > 100 µM (inactive); in the assay with NCI/ADR-RES, > 100 µM (inactive); in the assay on OVCAR-8 it was > 100 µM (inactive); in the assay with PC-3, > 100 µM (inactive); with SNB-75, 98.6 µM (inactive); in the assay with TK-10, 40.1 µM (inactive). Moreover, the GI50 in the assay on U-251 was > 100 µM (inactive); in the assay on UACC-257, 85.1 µM (inactive).

As to `COc1ccc2c(c1)/C(=C(\C(Cl)=C(\Cl)N1CCCCC1)[N+](=O)[O-])N2`, the GI50 in the assay with 786-0, with A498, in the assay with ACHN, with HL-60, with HOP-62 and with HOP-92 was > 100 µM (inactive) in each case. Besides, the GI50 in the assay with IGROV-1 was 90.6 µM (inactive); with KM12 it was > 100 µM (inactive); in the assay on LOX IMVI, > 100 µM (inactive); with MCF7, > 100 µM (inactive); in the assay with Malme-3M, > 100 µM (inactive); in the assay on NCI-H226, 29.6 µM (inactive). The GI50 in the assay with NCI-H522 was 39.4 µM (inactive); with NCI/ADR-RES, > 100 µM (inactive); with OVCAR-8, 87.5 µM (inactive); in the assay on PC-3 it was > 100 µM (inactive); with SNB-75 it was > 100 µM (inactive); with TK-10, > 100 µM (inactive). Also, the GI50 in the assay on U-251 and in the assay with UACC-257 was > 100 µM (inactive) in each case.

Regarding `CC(=O)Nc1ccc2c3c(cc(O)c2c1)N(C(=O)CCCCCC(=O)Nc1ccc2c4c(cc(O)c2c1)N(C(=O)OC(C)(C)C)CC4CCl)CC3CCl` (stereo not given), the GI50 in the assay on 786-0 was 2.04 µM (inactive); with A498 it was 1.64 µM (inactive); in the assay with ACHN, 3.54 µM (inactive); in the assay on HL-60, 0.355 µM (active); in the assay on HOP-62, 1.81 µM (inactive); in the assay with HOP-92 it was 3.59 µM (inactive). For the same molecule, the GI50 in the assay with IGROV-1 is 8.05 µM (inactive); in the assay on KM12, 2.73 µM (inactive); in the assay on LOX IMVI it was 1.92 µM (inactive); with MCF7, 0.233 µM (active); in the assay with Malme-3M it was 2.17 µM (inactive); in the assay on NCI-H226 it was 1.55 µM (inactive). Further, the GI50 in the assay on NCI-H522 was 1.05 µM (active); with NCI/ADR-RES, > 100 µM (inactive); with OVCAR-8 it was 2.35 µM (inactive); in the assay with PC-3, 2.99 µM (inactive); in the assay on SNB-75 it was 1.49 µM (inactive); in the assay on TK-10, 18 µM (inactive). Moreover, the GI50 with U-251 was 0.74 µM (active); in the assay on UACC-257, 3.37 µM (inactive).

Consider `Oc1ccc(Cl)cc1-c1cc(-c2ccccc2)nc(NCN2CCCCC2)n1`, for which the GI50 with 786-0 was > 100 µM (inactive); in the assay with A498, > 100 µM (inactive); in the assay with ACHN, 24.2 µM (inactive); with HL-60, > 100 µM (inactive); with HOP-62 it was > 100 µM (inactive); in the assay on HOP-92, > 100 µM (inactive). Besides, the GI50 in the assay with IGROV-1 is > 100 µM (inactive); in the assay on KM12, 0.78 µM (active); in the assay on LOX IMVI it was > 100 µM (inactive); in the assay with MCF7, 2.78 µM (inactive); in the assay with Malme-3M it was > 100 µM (inactive); in the assay with NCI-H226, 0.838 µM (active). The GI50 in the assay with NCI-H522, in the assay with NCI/ADR-RES, with OVCAR-8, in the assay on PC-3, with SNB-75 and in the assay with TK-10 was > 100 µM (inactive) throughout. In addition, the GI50 in the assay with U-251 and with UACC-257 was > 100 µM (inactive) in each case.

Turning to `CCOC1C=CC(=O)C(CO)O1` (stereo not given), the GI50 is 4.26 µM (inactive) in the assay with 786-0; 26.2 µM (inactive) in the assay with A498; 10.8 µM (inactive) with ACHN; 5.57 µM (inactive) in the assay on HL-60; 13.2 µM (inactive) in the assay with HOP-62; 2.57 µM (inactive) in the assay with HOP-92. Moreover, the GI50 in the assay on IGROV-1 is 12.9 µM (inactive); in the assay with KM12, 16.4 µM (inactive); in the assay on LOX IMVI it was 5.58 µM (inactive); in the assay with MCF7, 4.68 µM (inactive); in the assay on Malme-3M it was 12.2 µM (inactive); with NCI-H226, 24 µM (inactive). The GI50 was 1.67 µM (inactive) in the assay on NCI-H522; 14.9 µM (inactive) with NCI/ADR-RES; 11.6 µM (inactive) with OVCAR-8; 13.8 µM (inactive) in the assay with PC-3; 15.3 µM (inactive) in the assay with SNB-75; 8.43 µM (inactive) with TK-10. Further, the GI50 in the assay on U-251 was 12.7 µM (inactive); in the assay with UACC-257, 5.86 µM (inactive).

On to `COC(=O)[C@]12CC=C3O[C@@H]4OC5(CCCCC5)O[C@@H]4[C@H]3C1C(=O)C=CC2=O` (stereo not given in full), for which the GI50 in the assay with 786-0 is 17 µM (inactive); in the assay on A498, 17.9 µM (inactive); with ACHN, 18.5 µM (inactive); with HL-60 it was 8.91 µM (inactive); in the assay with HOP-62 it was 21 µM (inactive); with HOP-92 it was 18.7 µM (inactive). Moreover, the GI50 with IGROV-1 was 18.4 µM (inactive); in the assay with KM12, 10.9 µM (inactive); in the assay on LOX IMVI, 16.8 µM (inactive); with MCF7 it was 16 µM (inactive); with Malme-3M, 17.9 µM (inactive); in the assay on NCI-H226, 18.6 µM (inactive). Besides, the GI50 in the assay with NCI-H522 is 5.53 µM (inactive); with NCI/ADR-RES, 18.1 µM (inactive); with OVCAR-8, 20.2 µM (inactive); in the assay on PC-3, 24.9 µM (inactive); in the assay on SNB-75, 18.8 µM (inactive); with TK-10, 17.1 µM (inactive). The GI50 is 18.7 µM (inactive) with U-251 and 16.3 µM (inactive) in the assay with UACC-257.

`Cc1c2cc[n+](C)cc2c(C)c2c1sc1ccccc12`: the GI50 with 786-0 is 0.204 µM (active); with A498, 1.45 µM (inactive); in the assay on ACHN, 4.7 µM (inactive); in the assay with HL-60, 3.33 µM (inactive); in the assay on HOP-62 it was 0.452 µM (active); with HOP-92, 1.3 µM (inactive). Moreover, the GI50 in the assay with IGROV-1 is 1.12 µM (inactive); in the assay with KM12 it was 0.457 µM (active); in the assay with LOX IMVI it was 4.06 µM (inactive); in the assay on MCF7, 1.3 µM (inactive); in the assay on Malme-3M, 0.542 µM (active); in the assay with NCI-H226, 0.383 µM (active). Also, the GI50 was 0.661 µM (active) in the assay with NCI-H522; 18.9 µM (inactive) with NCI/ADR-RES; 0.33 µM (active) with OVCAR-8; 1.48 µM (inactive) in the assay with PC-3; 0.199 µM (active) in the assay on SNB-75; 13.4 µM (inactive) in the assay with TK-10. For the same molecule, the GI50 with U-251 was 0.114 µM (active); in the assay with UACC-257, 1.94 µM (inactive).

On to `O=C(O)c1cccc(OCCOc2cccc(C(=O)O)c2[N+](=O)[O-])c1[N+](=O)[O-]`, for which the GI50 in the assay on 786-0, in the assay on A498, in the assay on ACHN, in the assay with HL-60, in the assay with HOP-62 and in the assay on HOP-92 was > 100 µM (inactive) in each case. The GI50 in the assay on IGROV-1, in the assay with KM12, with LOX IMVI, in the assay with MCF7, in the assay on Malme-3M and in the assay on NCI-H226 was > 100 µM (inactive) each time. Besides, the GI50 in the assay with NCI-H522, with NCI/ADR-RES, in the assay with OVCAR-8, in the assay on PC-3, in the assay with SNB-75 and in the assay on TK-10 was > 100 µM (inactive) throughout. Moreover, the GI50 in the assay with U-251 and in the assay on UACC-257 was > 100 µM (inactive) each time.
